This passage reports melting point results from a melting point compilation (Tetko et al.; mined from patent text by program, amines drawn as free bases though some values may be those of a salt).

SMILES strings stand for the structures.

In the case of `Nc1sc2c(c1C(=O)c1cccs1)CCCC2`, the melting point lay within 115 to 118 °C.

`C=CCNc1nc(NCCOC)nc2c(C)csc12`: the melting point lay within 87 to 88 °C.

In turn, `CSc1cc2c(cc1C(F)(F)F)N(C(=O)Nc1cccc(C(=O)NCCN(C)C)c1)CC2` showed a melting point of 91 to 93 °C.

In turn, `O=[N+]([O-])c1oc2ccc(NCc3ccccc3)cc2c1-c1ccccc1` came in with a melting point of 118 to 120 °C.

`CCOC(=O)c1cccn2c(C=O)c(-c3ccccc3)nc12` displayed a melting point of 139 °C.

In turn, `CCCCCCCC(=O)N(C)Cc1ccc(OCc2ccccc2)c(-c2ccc(C=C3SC(=O)NC3=O)cc2)c1` displayed a melting point of 93 °C.

In turn, `COc1ccc(C(CBr)(OC)OC)cc1` returned a melting point of 52 to 53 °C.

On to `COC(=O)c1ccccc1Nc1c(Cl)ccc(C)c1Cl`, for which the melting point lay within 130 to 131 °C.

The compound `Cc1ccc2c(c1)c1cc(-c3ccc(Cl)cc3Cl)c(=O)n(C)c1n2CCCN1C(=O)c2ccccc2C1=O` showed a melting point of 249 °C.

`COc1ccc(C(=NO)c2c(F)cccc2F)c(Cl)c1Cl` returned a melting point of 180 to 186 °C.

With `CCCC(=O)Nc1c(C(=O)c2cccc(C)c2)[nH]c2cc(Cl)ccc12`, the melting point was 127 to 130 °C.

As for `NCCCCN1C(=O)NC(c2ccccc2)(c2ccccc2)C1=O`, the melting point was in the range of 137 to 138 °C.

With `O=c1[nH]c2ncc(-c3ccc4[nH]ccc4c3)nc2n1CC1CCCCC1`, the melting point was in the range of 343 to 346 °C.

The compound `O=C1C2CCCC2=Nc2ccccc2N1Cc1cccc(OCc2ccccc2)c1` (configuration not stated) returned a melting point of 120 to 122 °C.

In turn, `O=c1c(-c2cccc(C(F)(F)F)c2)c[nH]n1-c1ccc(F)cc1` registered a melting point of 171 to 173 °C.

As for `COC(=O)c1ccc(N2C(=O)CCC2(CN=[N+]=[N-])COC(=O)c2ccccc2)c([N+](=O)[O-])c1` (configuration not stated), the melting point lay in the range of 214 to 215 °C.

With `C=CCN1C(=O)CN(c2ccc(OCc3ccccc3)cc2)C1=S`, the melting point was determined as 130 °C.

`COC(=O)c1c(Oc2ccc(Cl)cc2[N+](=O)[O-])c2ccccc2n1Cc1ccccc1` yielded a melting point of 120 to 121 °C.

`COC(=O)Nc1cn2cc(S(=O)c3ccccc3)ccc2n1` (configuration not stated) yielded a melting point of 247 to 248 °C.

For `Cc1ncn(Nc2cccc(Cl)c2)c1-c1cccc(Cl)c1`, the melting point came to 168 °C.

`Cc1cccc(C(=O)c2cc3c(ccc4ccccc43)oc2=O)c1` showed a melting point of 190 to 192 °C.

As for `CCOC(=O)CCCC(=O)CNC(=O)c1csc(NC(=O)NCc2ccccc2)n1`, the melting point is 135 to 136 °C.

Consider `CN1Cc2c(C#C[Si](C)(C)C)ncn2-c2ccc(F)cc2C1=O`, for which the melting point fell in the range of 184 to 185 °C.

`CN(c1cccc2cc(C3=NCC(CO)S3)[nH]c12)S(=O)(=O)c1cccs1` (configuration not stated): the melting point was in the range of 207 to 208 °C.

In turn, `c1ncn(Cc2ccc3c(c2)-c2[nH]nc(-c4ccsc4)c2C3)n1` came in with a melting point of 243 to 245 °C.

In turn, `O=C1CCC2=C1C(c1cccc([N+](=O)[O-])c1)C1=C(CCCS1)N2` (configuration not stated) yielded a melting point of more than 260 °C.

`CCc1cc(-c2cccc(N)n2)c(OC)cc1OCCN(C)C` showed a melting point of 109 °C.

With `FC(F)(F)c1ccn(-c2cccnc2)n1`, the melting point is 59 to 61 °C.

Take `O=Cc1cc2c3c(ccc4c3c1CCC4)CCC2`: the melting point was in the range of 102 to 105 °C.

The compound `O=C(Nc1ccc(Br)c2c1C(=O)c1ccccc1C2=O)c1ccccc1` returned a melting point of 300 °C.

`CC(=O)N(CCCCCC(=O)O)C(c1ccccc1)c1ccccc1` displayed a melting point of 119 to 120 °C.

`CN1CCN(Cc2ccc(-c3cc4c(Nc5cccc6[nH]ccc56)c(C#N)cnc4s3)cc2)CC1` showed a melting point of more than 245 °C.

The compound `CS(=O)(=O)NC(CCC(O)(Cn1cncn1)c1ccc(F)cc1F)C(=O)O` (configuration not stated) yielded a melting point of 165 to 173 °C.

The compound `O=C(NCc1ccccc1)C1CC=CC(O)C1` (configuration not stated) gave a melting point of 127 to 128 °C.

As to `Nc1nc2[nH]c(CCCCC#Cc3ccc(C(=O)N[C@@H](CCC(=O)O)C(=O)O)s3)cc2c(=O)[nH]1`, the melting point fell in the range of 197 to 198 °C.

On to `O=C(NC1CC1)c1cccc2c1CC(NC1CC1)CO2` (configuration not stated), for which the melting point lay in the range of 126 to 127 °C.

`CCOC(=O)c1cn(C)c2cnc3cc(N4CCCC(C)(C)C4)c(F)cc3c2c1=O` displayed a melting point of 198 to 200 °C.

`O=C(O)COc1ccc2c(-c3cccc(F)c3F)noc2c1Cl` registered a melting point of 183 to 187 °C.

Take `CCOC(=O)/C=C/c1cn(Cc2ccc(OCc3nc(-c4ccccc4)oc3C)cc2)cc1-c1ccccc1`: the melting point lay within 120 to 121 °C.

As for `CCc1nnc(-c2ccc(OC)cc2)n1-c1ccccc1C`, the melting point turned out to be 118 °C.

In turn, `COC(=O)C1C(=O)Nc2ccc(Cl)cc2CC1c1ccc(OC)cc1` (configuration not stated) displayed a melting point of 189 to 190 °C.

For `O=C(Cn1c(-c2cccs2)ncc(NC(=O)OCc2ccccc2)c1=O)NC(Cc1ccccc1)C(=O)C(F)(F)F` (configuration not stated), the melting point lay within 108 to 111 °C.

The compound `COc1ccc(OCCCCBr)c(C2Sc3cc(Cl)ccc3N(C)C2=O)c1` (configuration not stated) displayed a melting point of 106 to 107 °C.

In the case of `N#Cc1ccccc1N1CCN(C[C@@H](O)COc2cccc(-c3noc4ccsc34)c2)CC1`, the melting point was 87 to 89 °C.

`OCc1ccc(-c2ccccc2-c2nnnn2C(c2ccccc2)(c2ccccc2)c2ccccc2)cc1` displayed a melting point of 167 °C.

`C=C1C(=O)c2ccccc2OC1c1ccc(N(C)C)cc1` (configuration not stated) had a melting point of 110 to 112 °C.

With `CCOC(=O)c1ccc(-c2nn(Cc3ccccc3)c3ccccc23)cc1`, the melting point was 95 to 96 °C.

In turn, `CCC(Oc1c(F)ccc(C)c1F)C1=NCCN1` (configuration not stated) returned a melting point of 70.5 to 71 °C.

With `COc1cc2c(cc1OC)CN(c1nc(Cl)nc3cc(OC)c(OC)cc13)CC2`, the melting point lay within 183 to 186 °C.

Compound `CC(NC(=S)Nc1ccc(Nc2ccccc2)nc1)C(C)(C)C` (configuration not stated) displayed a melting point of 168 to 170 °C.

`COc1cc(Nc2c(C#N)cnc3cc(C#Cc4ccncc4)sc23)c(Cl)cc1Cl` displayed a melting point of 221 to 223 °C.

As to `COc1ccc(CNC(=O)c2nc3scc(COCc4ccc(C(=O)O)cc4)c3c(=O)[nH]2)cc1`, the melting point is 271 to 273 °C.

Consider `COc1cc2ncc(N[C@@H]3C[C@@H]4C[C@H]3C[C@H]4O)nc2cc1OC`, for which the melting point lay within 190 to 192 °C.

`CSc1cc2c(cn1)c(=O)n1nccc1n2C` had a melting point of 267 °C.

Compound `CCN(C(=O)n1oc(C)c(Cl)c1=O)c1ccc(Cl)cc1Cl` showed a melting point of 101 to 102 °C.

`CC(=Cc1ccccc1)c1cc2c(cc1C)C(C)(C)CCC2(C)C` came in with a melting point of 75 to 77 °C.

`O=C1c2ccccc2C(=O)N1CC(Br)(c1ccccc1)C(F)Br` (configuration not stated) came in with a melting point of 163 to 164 °C.

As for `CC(C)(c1ccccc1)N1CC=C(c2ccccc2)C1=O`, the melting point lay in the range of 85 to 86 °C.

With `CCN1Cc2c(cc3ccc4c(c3c2-c2ccc3c(c2)OCO3)OCO4)C1=O`, the melting point is 210 to 212 °C.

The compound `O=C1C(c2ccc(O)cc2)=C(Br)c2cc(O)ccc21` showed a melting point of 245 °C.

Compound `O=c1[nH]ncc2[nH]c(-c3ccc(OC(F)F)c(OC4CC4)c3)c(-c3ccccc3)c12` gave a melting point of 138 to 143 °C.

`CCCCCCCCc1cnc(-c2ccc(C#N)cc2)nc1` had a melting point of 66.1 to 66.5 °C.

For `CCOC(=O)c1[nH]c(-n2ccc(OCc3ccccc3)cc2=O)nc1C`, the melting point was in the range of 135 to 136 °C.

As to `Cn1cc(C(=O)Nc2ccccc2-c2cccc(C#N)c2)c(C(F)(F)F)n1`, the melting point was 76 to 78 °C.

Regarding `CCCc1nc2c(N)nc3cccnc3c2n1C1(OC)CCCCC1`, the melting point is 187 to 188 °C.

In the case of `CN1CCCCC1CNC(=O)Nc1cc(N2CC(c3ccccc3)CC2=O)ccn1` (configuration not stated), the melting point lay within 144 to 146 °C.

`Cc1[nH]cc2c(=O)n(-c3ccc(Cl)cc3)nc-2c1-c1cccc(NCc2cccnc2)c1` returned a melting point of 284 to 287 °C.

`CCCOc1ccccc1OS(=O)(=O)NC(=O)Nc1nc(OC)cc(OC)n1` came in with a melting point of 108 to 109 °C.

The compound `O=C(O)c1ccc2nc3c(c(=O)n2c1)CCCC3=Cc1ccccc1` gave a melting point of 261 to 263 °C.

Compound `Cc1c(-c2ccccc2)[nH]c(=O)n1C1CCN(Cc2cccc(Cl)c2)CC1` yielded a melting point of 248 to 249 °C.

On to `CNc1nc(-c2cccc(NC(=O)c3ccc(OC)c(Cl)c3)c2)c2cc(OC)c(OC)cc2n1`, for which the melting point was 130 to 132 °C.

In the case of `CC1CCc2ccc(OCC(O)CNC(C)(C)C)cc2O1` (configuration not stated), the melting point lay in the range of 92 to 94 °C.

Regarding `COCN1C(C)=C(C(=O)O)C(c2cccc(Cl)c2Cl)C(C(=O)OCOC(=O)C(C)(C)C)=C1C` (single isomer, unassigned; (+)), the melting point was in the range of 89 to 90 °C.

The compound `Cc1nccc2[nH]c(=O)c(C(N)=O)cc12` gave a melting point of more than 320 °C.

With `COc1ccc2c(c1)C(=NOCCN(C)C)c1c-2c(N2CCNCC2)nc2ccccc12`, the melting point was in the range of 84 to 86 °C.

On to `CSC(=S)C1(c2ccccn2)CCCCS1` (configuration not stated), for which the melting point was 79 °C.

`CCn1c(SCc2ccccn2)nc2ccccc2c1=O`: the melting point lay in the range of 110 to 111 °C.

For `CONC(=O)NC1(c2ccc(C(C)C)cc2OC)C(=O)c2ccccc2C1=O`, the melting point lay within 153 to 155 °C.

With `Cc1nc(NCC2CC2)c2nnn(-c3ccc(C(C)C)cc3Br)c2n1`, the melting point is 166 to 167 °C.

Compound `Cc1ccc2c(c1)nnn2CNc1ccccc1` had a melting point of 149 to 152 °C.

Compound `CC(Cc1c[nH]c2ccccc12)(NC(=O)OC1C2CC3CC(C2)CC1C3)C(=O)NCC(NC=O)c1ccccc1` (configuration not stated) showed a melting point of 102 to 118 °C.

Take `CCCCCCCC=C1SC(=S)N(N=c2sc3ccccc3s2)C1=O`: the melting point was found to be 185 °C.

Turning to `COc1cccc(-n2c3c(c(=O)c4cccnc42)CCO3)c1`, the melting point fell in the range of 194 to 196 °C.

On to `CC(C)(C)OC(=O)N[C@@H]1C[C@H](CO)[C@@H](OC(=O)c2ccccc2)[C@H]1OC(=O)c1ccccc1`, for which the melting point lay in the range of 78 to 79 °C.

On to `NC(=O)Cc1ccc(-c2cnc3[nH]c(=O)n(CC4CCCCC4)c3n2)cc1`, for which the melting point lay in the range of 272 to 274 °C.

As for `Nc1ccccc1NCCO`, the melting point was 105 to 106 °C.

Turning to `O=C(Nc1cccc(C(F)(F)F)c1)c1cccnc1Cl`, the melting point was in the range of 117 to 118 °C.

A word on the melting point: it is the temperature, or range, at which the solid turns liquid.
